The results in this text go back to patent US10125134B2 (Mirati Therapeutics, Inc., priority 2016, dated 2018).

The structures appear in SMILES notation. Like-named read-outs stand apart in the source and are kept apart here.

Assay [1] relates to NCI-H358 cells (express KRas G12C), Phospho-ERK. Description: Cellular inhibition of KRas G12C: Phospho-ERK in NCI-H358 cells. It is filed as cell-based. The procedure: The cellular inhibition of KRAs G12C by exemplary compounds of the present invention was determined by measuring the amount of a downstream marker of KRas activity, phosphorylated ERK (“Phospho-ERK”).
Cells were plated in poly-D-Lysine coated 96-well plates at a concentration of 50,000 cells/well and allowed to attach for 8-12 hours. Diluted compounds were then added at a final concentration of 0.5% DMSO. After 3 hours, the medium was removed, 150 μL of 4% formaldehyde was added and the plates were incubated for 20 minutes. The plates were washed with PBS, and permeabilized using 150 μL of ice cold 100% methanol for 10 minutes. Non-specific antibody binding to the plates was blocked using 100 μL Licor Blocking Buffer (Li-Cor Biotechnology, Lincoln Nebr.) for 1 hour at room temperature. Positive control samples and samples lacking cells were parallel processed with test samples as standards.
The amount Phospho-ERK was determined using an antibody specific for the phosphorylated form of ERK and compared to the amount of GAPDH. […] The plates were incubated for 2 hours at room temperature. The plates were washed with PBS+0.05% Tween 20.
Secondary antibodies used to visualize primary antibodies were added as follows: Anti-rabbit-680 diluted 1:1000 and Anti-mouse-800 diluted 1:1000 in Licor Block+0.05% Tween 20 and incubated for 1 hour at room temperature. The plates were washed with PBS+0.05% Tween 20. A 100 μL aliquot of PBS was added to each well and the plates were read on a LICOR AERIUS plate reader.
The pERK(Thr202/Tyr204) signal was normalized with the GAPDH signal and percent of DMSO control values were calculated. IC50 values were generated using a 4 parameter fit of the dose response curve. Key: “A”≥0.0001−≤1 μM; and “B”>1 μM.

Another assay has as its target KRas G12C (Homo sapiens, UniProt P01116, C118S/C51S/C80L/G12C). Description: KRas G12C Modification Assay (LCMS detection of covalent adduct). It is filed as binding. The settings on record: normalized percent of control; tested at 5 μM concentration for 3 hours. The procedure:
A 10 μL aliquot of each protein solution was then transferred to a 384 well microtiter plate. Initial compound stocks were generated at fifty times their desired final assay concentration in DMSO.
Exemplary compounds of Formula (I) were diluted 25-fold into K-Ras Assay Buffer to a final of two times their final concentration. A 10 μL aliquot of each diluted compound solution was then added to each of the protein solutions in the microtiter plate to initiate reaction. […] At each time point, the reactions were quenched with 20 μL of a 25 mM acetic acid solution. […] Once all reactions were quenched, the plates were heat sealed and the samples were injected into a LC/MS system for data acquisition.
Samples were injected in their liquid phase onto a C-3 reverse phase column to remove assay buffer and prepare the samples for mass spectrometer. The proteins were eluted from the column using an acetonitrile gradient and fed directly into the mass analyzer. Initial raw data analysis took place in Agilent MassHunter software immediately post data acquisition.
Raw data analysis of the intact protein was exclusively a deconvolution of the multiple charge states of each protein in solution using a maximum entropy deconvolution provided in Mass Hunter. To minimize complexity, only the data over limited mass ranges were considered for analysis, with a minimum of one Dalton mass step intervals. The heights of all masses identified during raw data analysis were exported to be further analyzed in Spotfire® data analysis software.
Final data analysis was a multistep process in the Spotfire® data analysis software package. Briefly, each protein mass was calculated as a percent of the total signal of that sample, that percentage was then normalized to the percentage of signal of the protein in the absence of reactive compounds. Those normalized signals were reported as normalized percent of control (POC). […] Key: “A”≤25% POC; “B”>25% POC−≤50% POC; “C”>50% POC and ND=not determined.

The mark [2] stands for this setting: Homo sapiens, NCI-H358, 3 h, pERK(Thr202/Tyr204) normalized with GAPDH, NCI-H358 cells, 3 hours, read-out: IC50.
[3] abbreviates: Homo sapiens, pERK(Thr202/Tyr204) normalized with GAPDH, NCI-H358 cells, 3 hours, read-out: IC50.
Setting [4] is: pERK(Thr202/Tyr204) normalized with GAPDH, NCI-H358 cells, 3 hours, read-out: IC50.

One may read the IC50 as the concentration needed to halve the response being measured. In the case of `C=CC(=O)N1CCN(c2nc(OC[C@@H]3CCCC(=O)N3)nc3c2CCN(c2cc(O)cc4ccccc24)C3)CC1` (single isomer, unassigned) [Example 61], the IC50 in assay [1] (setting [2]) is > 1000 nM. Further, the POC entry on KRas G12C is listed as “C (“C”>50% POC)”. On to `C=CC(=O)N1CCN(c2nc(OC[C@H]3CCCC(=O)N3)nc3c2CCN(c2cc(O)cc4ccccc24)C3)CC1` (single isomer, unassigned) [Example 62], for which the IC50 in assay [1] (setting [2]) was > 1000 nM. Also, on KRas G12C, the POC result is “C (“C”>50% POC)”.

Take `C=CC(=O)N1CCN(c2nc(OC[C@H](O)CN3CCOCC3)nc3c2CCN(c2cc(O)cc4ccccc24)C3)CC1` (single isomer, unassigned) [Example 215]: the IC50 in assay [1] (setting [2]) was > 1000 nM. Also, on KRas G12C, the POC entry is “C (“C”>50% POC)”. Turning to `C=CC(=O)N1CCN(c2nc(OC[C@@H](O)CN3CCOCC3)nc3c2CCN(c2cc(O)cc4ccccc24)C3)CC1` (single isomer, unassigned) [Example 216], in assay [1] (setting [2]), the IC50 was > 1000 nM. At KRas G12C, the POC result is listed as “C (“C”>50% POC)”. For the molecule `C=CC(=O)N1CCN(c2ncnc3c2CCN(c2cc(O)cc4ccccc24)C3)CC1` [Example 1, 1-(4-(7-(3-hydroxynaphthalen-1-yl)-5,6,7,8-tetrahydropyrido[3,4-d]pyrimidin-4-yl)piperazin-1-yl)prop-2-en-1-one], the IC50 in assay [1] (setting [2]) was > 1000 nM. On KRas G12C, the POC entry is on record as “B (“B”>25% POC−≤50% POC)”. Consider `C=CC(=O)N1CCN(c2ncnc3c2CCN(c2cccc4ccc(O)cc24)C3)CC1` [Example 2, 1-(4-(7-(7-hydroxynaphthalen-1-yl)-5,6,7,8-tetrahydropyrido[3,4-d]pyrimidin-4-yl)piperazin-1-yl)prop-2-en-1-one], for which the IC50 in assay [1] (setting [2]) was > 1000 nM. In addition, on KRas G12C, the POC entry is given as “A (“A”≤25% POC)”. The corresponding values for `C=CC(=O)N1CCN(c2ncnc3c2CCN(c2cccc4ccccc24)C3)CC1` [Example 3, 1-(4-(7-(naphthalen-1-yl)-5,6,7,8-tetrahydropyrido[3,4-d]pyrimidin-4-yl)piperazin-1-yl)prop-2-en-1-one] are > 1000 nM and “A (“A”≤25% POC)”. `C=CC(=O)N1CCN(c2nc(OC[C@@H]3CCCN3C)nc3c2CCN(c2cc(O)cc4ccccc24)C3)CC1` [Example 127, (S)-1-(4-(7-(3-hydroxynaphthalen-1-yl)-2-((1-methylpyrrolidin-2-yl)methoxy)-5,6,7,8-tetrahydropyrido[3,4-d]pyrimidin-4-yl)piperazin-1-yl)prop-2-en-1-one] registered an IC50 in assay [1] (Homo sapiens, NCI-H358, 3 h) of 0.1 to 1000 nM. For `C=CC(=O)N1CCN(c2nc(OC[C@H]3CCCN3C)nc3c2CCN(c2cc(O)cc4ccccc24)C3)CC1` [Example 187, (R)-1-(4-(7-(3-hydroxynaphthalen-1-yl)-2-((1-methylpyrrolidin-2-yl)methoxy)-5,6,7,8-tetrahydropyrido[3,4-d]pyrimidin-4-yl)piperazin-1-yl)prop-2-en-1-one], the IC50 in assay [1] (Homo sapiens, NCI-H358, 3 h) was 0.1 to 1000 nM. Take `C=CC(=O)N1CCN(c2nc(OC[C@@H]3CCCN3C)nc3c2CCN(c2cccc4ccccc24)C3)CC1` [Example 200, (S)-1-(4-(2-((1-methylpyrrolidin-2-yl)methoxy)-7-(naphthalen-1-yl)-5,6,7,8-tetrahydropyrido[3,4-d]pyrimidin-4-yl)piperazin-1-yl)prop-2-en-1-one]: the IC50 in assay [1] (Homo sapiens, NCI-H358, 3 h) is > 1000 nM. Take `CC#CC(=O)N1CCN(c2nc(OC[C@@H]3CCCN3C)nc3c2CCN(c2cccc4ccccc24)C3)CC1CC#N` (stereo partly drawn) [Example 242, 2-(1-(but-2-ynoyl)-4-(2-(((S)-1-methylpyrrolidin-2-yl)methoxy)-7-(naphthalen-1-yl)-5,6,7,8-tetrahydropyrido[3,4-d]pyrimidin-4-yl)piperazin-2-yl)acetonitrile]: the IC50 in assay [1] (setting [3]) was in the range of 0.1 to 1000 nM. Regarding `C=CC(=O)N1CCN(c2nc(OC[C@]3(C)CCCN3C)nc3c2CCN(c2cccc4ccccc24)C3)CC1CC#N` (stereo partly drawn) [Example 251, 2-(1-acryloyl-4-(2-(((S)-1,2-dimethylpyrrolidin-2-yl)methoxy)-7-(naphthalen-1-yl)-5,6,7,8-tetrahydropyrido[3,4-d]pyrimidin-4-yl)piperazin-2-yl)acetonitrile], the IC50 in assay [1] (Homo sapiens, NCI-H358, 3 h) lay in the range of 0.1 to 1000 nM. Turning to `C=CC(=O)N1CCN(c2nc(OC[C@@H]3CCCN3C)nc3c2CCN(c2cccc4cccc(Cl)c24)C3)CC1CC#N` (stereo partly drawn) [Example 310, 2-(1-acryloyl-4-(7-(8-chloronaphthalen-1-yl)-2-(((S)-1-methylpyrrolidin-2-yl)methoxy)-5,6,7,8-tetrahydropyrido[3,4-d]pyrimidin-4-yl)piperazin-2-yl)acetonitrile], in assay [1] (Homo sapiens, NCI-H358, 3 h), the IC50 was 0.1 to 1000 nM. Still for that read-out and setting: the value for `C=CC(=O)N1CCN(c2nc(OC[C@@H]3CCCN3C)nc3c2CCN(c2cccc4cccc(Cl)c24)C3)C[C@@H]1CC#N` [Example 331, 2-[(2S)-4-[7-(8-chloro-1-naphthyl)-2-[[(2S)-1-methylpyrrolidin-2-yl]methoxy]-6,8-dihydro-5H-pyrido[3,4-d]pyrimidin-4-yl]-1-prop-2-enoyl-piperazin-2-yl]acetonitrile] was 0.1 to 1000 nM.

Turning to `C=CC(=O)N1CCN(c2nc(OC[C@H]3CCCN3C)nc3c2CCN(c2cccc(F)c2C(F)(F)F)C3)C[C@@H]1CC#N` [Example 382, 2-((S)-1-acryloyl-4-(7-(3-fluoro-2-(trifluoromethyl)phenyl)-2-(((R)-1-methylpyrrolidin-2-yl)methoxy)-5,6,7,8-tetrahydropyrido[3,4-d]pyrimidin-4-yl)piperazin-2-yl)acetonitrile], in assay [1] (setting [4]), the IC50 is 0.1 to 1000 nM.

Consider `C=CC(=O)N1CCN(c2nc(OC[C@@H]3CCCN3C)nc3c2CCN(c2cccc(C)c2C(F)(F)F)C3)C[C@@H]1CC#N` [Example 392, 2-((S)-1-acryloyl-4-(7-(3-methyl-2-(trifluoromethyl)phenyl)-2-(((S)-1-methylpyrrolidin-2-yl)methoxy)-5,6,7,8-tetrahydropyrido[3,4-d]pyrimidin-4-yl)piperazin-2-yl)acetonitrile], for which the IC50 in assay [1] (setting [4]) lay within 0.1 to 1000 nM. Consider `C=CC(=O)N1CCN(c2nc(OC[C@H]3CN(C)CCO3)nc3c2CCN(c2cccc4ccccc24)C3)CC1CC#N` (stereo partly drawn) [Example 441, 2-(1-Acryloyl-4-(2-(((R)-4-methylmorpholin-2-yl)methoxy)-7-(naphthalen-1-yl)-5,6,7,8-tetrahydropyrido[3,4-d]pyrimidin-4-yl)piperazin-2-yl)acetonitrile], for which the POC result at KRas G12C is given as “C (“C”>50% POC)”. In the case of `C=CC(=O)N1CCN(c2nc(OC[C@H]3CN(C)[C@H](C)CO3)nc3c2CCN(c2cccc4ccccc24)C3)C[C@@H]1CC#N` [Example 449, 2-((S)-1-Acryloyl-4-(2-(((2R,5R)-4,5-dimethylmorpholin-2-yl)methoxy)-7-(naphthalen-1-yl)-5,6,7,8-tetrahydropyrido[3,4-d]pyrimidin-4-yl)piperazin-2-yl)acetonitrile], the POC result on KRas G12C is listed as “C (“C”>50% POC)”. As for `C=CC(=O)N1CCN(c2nc(OC[C@@H]3CCCN3C)nc3c2CCN(c2cccc4cccc(OC)c24)C3)C[C@@H]1CC#N` [Example 463, 2-((S)-1-acryloyl-4-(7-(8-methoxynaphthalen-1-yl)-2-(((S)-1-methylpyrrolidin-2-yl)methoxy)-5,6,7,8-tetrahydropyrido[3,4-d]pyrimidin-4-yl)piperazin-2-yl)acetonitrile], the 50% inhibitory concentration (IC50) in assay [1] (setting [3]) was > 1000 nM. As to `C=CC(=O)N1CCN(c2nc(OC[C@@H]3CCCN3C)nc3c2CCN(c2cccc4cccc(C#N)c24)C3)C[C@@H]1CC#N` [Example 464, 8-(4-((S)-4-acryloyl-3-(cyanomethyl)piperazin-1-yl)-2-(((S)-1-methylpyrrolidin-2-yl)methoxy)-5,8-dihydropyrido[3,4-d]pyrimidin-7(6H)-yl)-1-naphthonitrile], in assay [1] (setting [3]), the IC50 was 0.1 to 1000 nM.
